PMC12706794, “Identification and Characterization of a Small-Molecule Inhibitor of the Pseudomonas aeruginosa SOS Response” (ACS Infectious Diseases, 2025)
Values after ≈ are worked out from the molar mass of the structure shown.

Key:
[1] = target: T1, RecAPa*-induced FlAsH-LexAPa CTD autoproteolysis (Pseudomonas aeruginosa, UniProt P37452); experiment: FP-based RecA*-induced LexA autoproteolysis in vitro assay; type: biochemical, P. aeruginosa; conditions: highest concentration tested, range 0.2 to 2 mM
T1 construct: 6His-SUMO (N, cleaved yes); made in house; host or cells: E. coli BL21(DE3)
Procedure: A custom-made library of 318 small molecules (MW < 1000 Da) has been screened at two different concentrations (25 μg/mL and 125 μg/mL, corresponding to molar concentrations of 30–170 μM and 150–850 μM, respectively) on the P. aeruginosa SOS system by a previously validated fluorescence polμarization (FP)-based RecA*-induced LexA autoproteolysis in vitro assay. , 1 μM FlAsH-LexAPa ^CTD and 1 μM preactivated RecA*Pa were incubated with the screened chemical fragments for 1 h at 37 °C before measuring FP.
Then, the FP-based LexA autoproteolysis assay was repeated on the two hits, monitoring the full kinetics of LexA cleavage over a 1 h incubation and exploring a wide range of drug concentrations (10–1000 μM).
A custom-made library of 318 chemical fragments (25 mg/mL stock solutions in DMSO), provided by P. Kavaliauskas (Weill Cornell Medicine of Cornell University) was screened in vitro for their ability to inhibit RecAPa*-mediated LexAPa autoproteolysis by a Fluorescence Polarization (FP)-based assay. , Twenty microliter reactions were set up in Nunc 384-Well Black microplates, and final reaction mixtures included 1 μM FlAsH-LexAPa ^CTD, the compounds (5% v/v DMSO in all the samples, including the controls devoid of compounds), and 1 μM RecAPa* (FP Buffer in the negative control; 30 mM Hepes, 150 mM NaCl, pH 7.1). The initial screening was performed with two dilutions of the compounds (25 and 125 μg/mL). The FP signal was measured after a 1 h incubation at 37 °C by an EnVision MultiMode Plate Reader (PerkinElmer) equipped with opportune FP filters and mirrors. To obtain LexAPa ^CTD autoproteolysis percent inhibition, FP data were scaled from 0% (corresponding to the positive control sample) to 100% (negative control).
Compounds displaying an inhibition of at least 50% at the highest concentration and a rather consistent increase in activity at the two tested concentrations were selected as the hits.
The same FP assay was carried out on serial dilutions of selected compounds to determine the dose–response relationship. To evaluate the effect of a reducing environment, 2 mM Tris(2-carboxyethyl)-phosphine (TCEP) was added to the reaction mixtures. The FP signal of FlAsH-LexAPa ^CTD alone was detected for 5 min before adding the compounds. The system was monitored for an additional 5 min in the presence of the tested compounds in order to observe potential aggregation events. Then, RecAPa* was added, and the autoproteolysis reaction was followed for 1 h at 37 °C (1 reading per minute). FlAsH-LexAPa ^CTD autoproteolysis percent inhibition was calculated as mentioned above and plotted as a function of compound concentration. Experimental data fitting was performed with GraphPad Prism 8 to obtain the absolute IC50.

[2] = system: P. aeruginosa PAO1; experiment: Antimicrobial susceptibility testing (MIC); type: cell-based, P. aeruginosa PAO1 (ATCC 15692); conditions: for MIC: Pseudomonas aeruginosa, PAO1
Procedure: The MIC of compound A12 and antibiotics was determined by using the Clinical Laboratory Standard Institute (CLSI) recommendations with minor modifications. […] Microplates were incubated in a humidified incubator for 18 h at 37 °C, and the bacterial growth was quantified by OD600. According to CLSI, MICs are defined as the lowest concentrations of antimicrobial agents that prevent visible growth.

[3] = system: P. aeruginosa PAO1 on THP-1-derived macrophages; experiment: P. aeruginosa PAO1 colonization of THP-1-derived macrophages; type: cell-based; conditions: single agent: ciprofloxacin 0.5 μg/mL or A12 100 μg/mL; 3 h infection
Procedure: THP-1-derived macrophages were generated from THP-1 monocytes as previously described, with minor modifications. , Briefly, THP-1 monocytes were washed three times with antibiotic-free RPMI 1640 medium and resuspended in complete antibiotic-free RPMI 1640 supplemented with 300 nM phorbol 12-myristate 13-acetate (PMA). Cells were incubated for 24 h, followed by a 48 h rest period in PMA-free RPMI 1640 prior to use in subsequent experiments. […] PMA-differentiated THP-1-derived macrophages were similarly trypsinized and seeded into 24-well plates at 5 × 10^5 cells/well in complete, antibiotic-free RPMI supplemented with FBS. Cells were incubated overnight to allow for attachment. Immediately prior to infection, the medium was aspirated, and cells were washed three times with Dulbecco’s phosphate-buffered saline. […] Infection was synchronized by centrifuging plates at 1000g for 1 min. […] Following the infection period, the medium was aspirated, and cells were washed three times with DPBS to remove unattached bacteria and residual test compounds. […] In both cases, the resulting lysates were serially diluted in DPBS and plated on tryptic soy agar plates. Plates were incubated at 37 °C for 24 h, after which colonies were enumerated. Bacterial burden was expressed as the CFU per well.

[4] = target: LexAPa S125A (uncleavable mutant) (Pseudomonas aeruginosa ATCC 27853, UniProt P37452 1-204, S125A); experiment: EMSA; no A12, 10% DMSO; 8 uM LexA, 1 uM DNA; conditions: protein: recombinant; chain copies: 2; blunt
[5] = A12 (32 μg/mL) (+), in combination

Row | Molecule | MIC on P. aeruginosa PAO1 [2, 5] | MIC ([2]; A12 (32 μg/mL) (−)) | further results
1 | O=C(O)CCNc1ccccc1CCc1ccccc1NCCC(=O)O [BG-191, 3,3′-((ethane-1,2-diylbis(2,1-phenylene))bis(azanediyl))dipropionic acid] | – | – | LexAPa autocleavage percent inhibition of A12 derivatives [1]: 20%
2 | CC(CC(=O)O)Nc1ccccc1CCc1ccccc1NC(C)CC(=O)O (stereo not shown) [BG-194, 3,3′-((ethane-1,2-diylbis(2,1-phenylene))bis(azanediyl))dibutyric acid] | – | – | LexAPa autocleavage percent inhibition of A12 derivatives [1]: did not display any inhibitory activity
3 | CO/N=C(\C(=O)N[C@@H]1C(=O)N2C(C(=O)O)=C(CSc3nc(=O)c(=O)[nH]n3C)CS[C@H]12)c1csc(N)n1 [Ceftriaxone] | 8 µg/mL | 8 µg/mL (≈ 14.4 µM) | –
4 | O=C(O)c1cn(C2CC2)c2cc(N3CCNCC3)c(F)cc2c1=O [Ciprofloxacin, reference compound] | – | – | Total (adherent + intracellular) burden of PAO1 on THP-1-derived macrophages [3]: diminished
5 | C[C@H]1COc2c(N3CCN(C)CC3)c(F)cc3c(=O)c(C(=O)O)cn1c23 [Levofloxacin] | 0.125 µg/mL | 0.0625 µg/mL (≈ 0.173 µM) | –
6 | COc1c(N2C[C@@H]3CCCN[C@@H]3C2)c(F)cc2c(=O)c(C(=O)O)cn(C3CC3)c12 [Moxifloxacin] | – | 0.0312 µg/mL (≈ 0.0777 µM) | –
7 | CN(C)[C@@H]1C(O)=C(C(N)=O)C(=O)[C@@]2(O)C(O)=C3C(=O)c4c(O)cccc4[C@@](C)(O)[C@H]3C[C@@H]12 [Tetracycline] | 4 µg/mL | 4 µg/mL (≈ 9 µM) | –
8 | Gentamycin | 2 µg/mL | – | MIC on P. aeruginosa PAO1 ([2]; A12 (32 μg/mL) (−)): 2 µg/mL
9 | SOS-box dsDNA (AT-repeat) (dsDNA) DNA 1: GATGCCTGCGGATACTGTATATATATACAGTATCAATTCTGGCT DNA 2: AGCCAGAATTGATACTGTATATATATACAGTATCCGCAGGCATC | – | – | binding result [4]: binds
